Data as given in patent US4146501A, “Process for isolating and purifying taste bud receptors for screening and evaluating tastants” (priority 1976, dated 1979).
“Also recorded” adds a separate entry of the source. Where two headings read alike, the source gives them in different places. One block for each molecule: values may come before it.

Tests used:
[1] = test system: taste bud subfraction P4(B); experiment: Binding inhibition of 14C sucrose by various substances; parameters: species or system bovine
[2] = test system: taste bud filtrates and B subfractions [P2,3,4(B)]; experiment: Binding of 14C sugars to taste bud filtrates and B subfractions; parameters: species or system bovine; conditions: Bud; for 14C sugar binding: 30 min at 30° C
Experimental: (§1) The following procedure was utilized in tastant evaluation according to the process of this invention: Protein concentrations were determined by the methods of Lowry et al., (1951) J. Biol. […] According to density, physical appearance as determined by using electron microscopic morphology enzymatic activity and chemical analysis, B subfractions from taste buds and epithelial tissues achieved the greatest membrane purification compared with other subfractions. Among the taste bud B subfractions, P4(B) was morphologically more homogeneous with respect to membranes than P3(B) whereas P2(B) was the least homogeneous of all. Epithelial tissue B subfractions contained mainly fibrous tissue and few differences were found in morphology, density, enzymatic activity or chemical analysis between P2(B) or P4(B) subfractions. Taste bud and epithelial tissue D subfractions contained relatively few membrane fragments compared to the large amount of other cellular organelles present and therefore were not included in these studies. […] Each filtrate and subfraction was washed three times with calcium free, 0.2 M Krebs-Ringer bicarbonate (KRB) pH 7.4, suspended in the same buffer in a final volume of 2 ml and frozen in liquid nitrogen. No detectable change in binding characteristics from suspensions of taste bud or epithelial tissue fractions was observed after storage at -80° for as long as two months. All binding studies were carried out in plastic micro test tubes in a constant temperature shaking bath. For these studies KRB, suspensions of the initial filtrates, subfractions and ^14 C labeled and/or unlabeled sugars were incubated in a final volume of 100 μl. After incubation the tubes were placed in an ice bath, centrifuged, the supernatant aspirated and 10 μl KRB layered on top of the pellet. The KRB was then aspirated, the top of the test tube cut off with a razor blade just above the bellet, placed into 10 ml Aquasol (New England Nuclear Corp., Boston, Mass.) and the radioactivity determined in a liquid scintillation spectrophotometer. Controls, without filtrates or subfractions, were also included. […] The tubes were then placed in an ice bath for 3 minutes, and then centrifuged at 15,000 rpm for 6 min.

[3] = test system: non-taste bud bearing epithelial tissue filtrates and B subfractions [P2,4(B)]; experiment: Binding of 14C sugars to non-taste bud bearing epithelial tissue filtrates and B subfractions (control); parameters: species or system bovine; conditions: Epi; for 14C sugar binding: 30 min at 30° C
Experimental: as §1

[4] = test system: taste bud P4(B) subfractions; experiment: Specific binding: competition of 14C sugars or SSS with unlabeled homologous and heterologous sugars, Scatchard analysis; parameters: species or system bovine; conditions: for Kd: mean ± 1 SEM; for Relative Binding Inhibition: homologous set at 100; for specific binding (competition of 14C sugar or SSS with homologous unlabeled sugar or SSS): taste bud P4(B), FIG. 7
[5] = behavioral basis, cow; cited from earlier work
[6] = man; cited from earlier work
[7] = test system: epithelial tissue P4(B) subfractions; experiment: Specific binding: competition of 14C sugars or SSS with unlabeled homologous sugars (epithelial control); parameters: species or system bovine; conditions: FIG. 7
Experimental: All binding studies were carried out in plastic micro test tubes in a constant temperature shaking bath. For these studies KRB, suspensions of the initial filtrates, subfractions and ^14 C labeled and/or unlabeled sugars were incubated in a final volume of 100 μl. After incubation the tubes were placed in an ice bath, centrifuged, the supernatant aspirated and 10 μl KRB layered on top of the pellet. The KRB was then aspirated, the top of the test tube cut off with a razor blade just above the bellet, placed into 10 ml Aquasol (New England Nuclear Corp., Boston, Mass.) and the radioactivity determined in a liquid scintillation spectrophotometer. Controls, without filtrates or subfractions, were also included.

[8] = Filtrate, 14C glucose 200 μM, fructose 400 μM, sucrose 26 μM
[9] = maximal concentration of unlabelled sugar, range of values

SMILES: [Cl-].[Cl-].[Zn+2] [ZnCl2]
sucrose binding activity restored, of the initial activity measured in the absence of EDTA ([1]; 5 mM EDTA plus 20 mM Zn++): about 85%

SMILES: OC[C@H]1O[C@@H](O[C@H]2[C@H](O)[C@@H](O)C(O)O[C@@H]2CO)[C@H](O)[C@@H](O)[C@H]1O (stereo partly shown) [lactose]
specific binding (competition of 14C sugar or SSS with homologous unlabeled sugar or SSS) [4]: did not compete; also recorded: did not bind specifically | specific binding (competition of 14C sugar or SSS with homologous unlabeled sugar or SSS) [7]: did not compete; also recorded: did not bind specifically

SMILES: O=C1NS(=O)(=O)c2ccccc21 [SACCHARINE, saccharine]
Kd ([4]; non-linear Scatchard plot, primary class of binding sites, read-out: Kd (dissociation constant), K1): 18.3 ± 3.9 mM | Kd ([4]; non-linear Scatchard plot, secondary class of binding sites, read-out: Kd (dissociation constant), K2): 66.2 ± 6.8 mM | q (concentration of sugar or SSS bound per mg subfraction protein), K1 ([4]; primary class of binding sites): 2.7 ± 1.0 mM/mg protein | q (concentration of sugar or SSS bound per mg subfraction protein), K2 ([4]; secondary class of binding sites): 6.4 ± 0.4 mM/mg protein | specific binding (competition of 14C sugar or SSS with homologous unlabeled sugar or SSS) [4]: occurred

Continued, in another order:

14C sugar binding [2, 8]: 153000 cpm/mg protein | Relative enrichment of sugar binding compared to the initial filtrate ([2]; P2(B)): 3.7 | 14C sugar binding ([2]; P2(B)): 569000 cpm/mg protein | Relative enrichment of sugar binding compared to the initial filtrate ([2]; P3(B)): 8.5 | 14C sugar binding ([2]; P3(B)): 1.3e+06 cpm/mg protein | Relative enrichment of sugar binding compared to the initial filtrate ([2]; P4(B)): 17.8 | 14C sugar binding ([2]; P4(B)): 2.72e+06 cpm/mg protein | 14C sugar binding [3, 8]: 88000 cpm/mg protein | Relative enrichment of sugar binding compared to the initial filtrate ([3]; P2(B)): 1.1 | 14C sugar binding ([3]; P2(B)): 95000 cpm/mg protein | Relative enrichment of sugar binding compared to the initial filtrate ([3]; P4(B)): 0.9 | 14C sugar binding ([3]; P4(B)): 78000 cpm/mg protein | competition of unlabeled sugar with glucose binding ([4]; FIG. 8, in words): competed with glucose | competition of unlabeled sugar with sucrose binding ([4]; FIG. 8, in words): did not | Kd ([4]; Scatchard plot, single class of sites, read-out: Kd (dissociation constant)): 1.8 ± 0.9 mM | Inhibition (%) of 14C Fructose binding by unlabelled sugar [4, 9]: 70-80% | Inhibition (%) of 14C Glucose binding by unlabelled sugar [4, 9]: 36-40% | Inhibition (%) of 14C Sucrose binding by unlabelled sugar [4, 9]: 14-20% | Inhibition (%) of 14C Fructose binding by unlabelled sugar ([4]; maximal concentration of unlabelled sugar, range of values, listed as fructose): about 80% | Relative Binding Inhibition ([4]; section FRUCTOSE (as the 14C sugar per footnote) with each unlabelled sugar): 100% | Relative Binding Inhibition ([4]; section SUCROSE (as the 14C sugar per footnote) with each unlabelled sugar): 59% | q (concentration of sugar or SSS bound per mg subfraction protein) ([4]; single class of sites): 10.5 ± 1.2 mM/mg protein | specific binding (competition of 14C sugar or SSS with homologous unlabeled sugar or SSS) [4]: occurred
SMILES: O=C(CO)[C@@H](O)[C@H](O)[C@H](O)CO [Fructose, fructose]
bovine discrimination thresholds [5]: 0.06 M | Recognition thresholds in man [6]: 0.01 to 0.03 M

inhibition of 14C sucrose binding ([1]; urea 5M, 26 μM 14C sucrose): ~30%
SMILES: NC(N)=O [urea]
